Key:
HL-60(TB) = test: in vitro leukemia cell growth inhibition (NCI screen)
BT-549 = test: in vitro breast cancer cell growth inhibition (NCI screen)
OVCAR-3 = test: in vitro ovarian cancer cell growth inhibition (NCI screen)
CCRF-CEM = test: in vitro leukemia cell growth inhibition (NCI screen)
MCF7/ADR-RES = test: in vitro breast cancer cell growth inhibition (NCI screen)
MALME-3M = test: in vitro melanoma cell growth inhibition (NCI screen)
MOLT-4 = test: in vitro leukemia cell growth inhibition (NCI screen)
MDA-MB-435 = test: in vitro breast cancer cell growth inhibition (NCI screen)
MCF-7 = test: as above
COLO-205 = test: in vitro colon cancer cell growth inhibition (NCI screen)
M14 = test: in vitro melanoma cell growth inhibition (NCI screen)
UACC-257 = test: as above
MDA-N = test: in vitro breast cancer cell growth inhibition (NCI screen)
UACC-62 = test: in vitro melanoma cell growth inhibition (NCI screen)
SF-539 = test: in vitro CNS cancer cell growth inhibition (NCI screen)
HCC-2998 = test: in vitro colon cancer cell growth inhibition (NCI screen)
NCI-H460 = test: in vitro non-small cell lung cancer cell growth inhibition (NCI screen)
SK-MEL-5 = test: in vitro melanoma cell growth inhibition (NCI screen)
LOX1MVI = test: as above
MDA-MB-231/ATCC = test: in vitro breast cancer cell growth inhibition (NCI screen)
SK-MEL-2 = test: in vitro melanoma cell growth inhibition (NCI screen)
HOP-92 = test: in vitro non-small cell lung cancer cell growth inhibition (NCI screen)
SR = test: in vitro leukemia cell growth inhibition (NCI screen)
ACHN = test: in vitro renal cancer cell growth inhibition (NCI screen)
OVCAR-4 = test: in vitro ovarian cancer cell growth inhibition (NCI screen); conditions: OVACR-4
SK-OV-3 = test: as above
HCT-15 = test: in vitro colon cancer cell growth inhibition (NCI screen)
human tumor cell lines = format: cell-based; conditions: for GI50: Homo sapiens, cancer cell panel, general / most cell lines, read-out: logGI50 values in the cancer cell line panel (converted)
SNB-75 = test: in vitro CNS cancer cell growth inhibition (NCI screen)
UO-31 = test: in vitro renal cancer cell growth inhibition (NCI screen)
IGROV1 = test: in vitro ovarian cancer cell growth inhibition (NCI screen)
U 251 = test: in vitro CNS cancer cell growth inhibition (NCI screen)
RXF-393 = test: in vitro renal cancer cell growth inhibition (NCI screen)
PC-3 = test: in vitro prostate cancer cell growth inhibition (NCI screen)
K-562 = test: in vitro leukemia cell growth inhibition (NCI screen)
HT 29 = test: in vitro colon cancer cell growth inhibition (NCI screen)
HOP-62 = test: in vitro non-small cell lung cancer cell growth inhibition (NCI screen)
NCI-H23 = test: as above
HCT-116 = test: in vitro colon cancer cell growth inhibition (NCI screen)
SW 620 = test: as above
TK-10 = test: in vitro renal cancer cell growth inhibition (NCI screen)
NCI-H522 = test: in vitro non-small cell lung cancer cell growth inhibition (NCI screen)
SN12C = test: in vitro renal cancer cell growth inhibition (NCI screen)
NCI-H266 = test: in vitro non-small cell lung cancer cell growth inhibition (NCI screen)
T-47D = test: in vitro breast cancer cell growth inhibition (NCI screen)
OVCAR-8 = test: in vitro ovarian cancer cell growth inhibition (NCI screen)

For `COC(=O)CCCC(=O)NC1=C(NCc2ccccc2)C(=O)c2ccccc2C1=O` [Compound 51], the “cytotoxicity log GI50” value (HL-60(TB)) was -4.54 M, the “cytotoxicity log GI50” value (BT-549) was -4.54 M and the “cytotoxicity log GI50” value (OVCAR-3) was -4.64 M. For the same compound, the “cytotoxicity log GI50” value (CCRF-CEM) was -4.44 M, the “cytotoxicity log GI50” value (MCF7/ADR-RES) was -4.56 M and the “cytotoxicity log GI50” value (MALME-3M) was -4.81 M. For the same compound, the “cytotoxicity log GI50” value (MOLT-4) was -4.47 M, the “cytotoxicity log GI50” value (MDA-MB-435) was -4.37 M and the “cytotoxicity log GI50” value (MCF-7) was -4.52 M. The “cytotoxicity log GI50” value (COLO-205) was -4.62 M, the “cytotoxicity log GI50” value (M14) was -4.53 M and the “cytotoxicity log GI50” value (UACC-257) was -4.53 M. The “cytotoxicity log GI50” value (MDA-N) was -4.38 M, the “cytotoxicity log GI50” value (UACC-62) was -4.53 M and the “cytotoxicity log GI50” value (SF-539) was -4.44 M. For the same compound, the “cytotoxicity log GI50” value (HCC-2998) was -4.49 M.
In the case of `COC(=O)CCC(=O)NC1=C(Nc2ccc(OC)cc2)C(=O)c2ccccc2C1=O` [Compound 56], the “cytotoxicity log GI50” value (NCI-H460) is reported as -5.18 M, the “cytotoxicity log GI50” value (SK-MEL-5) is reported as -5.75 M and the “cytotoxicity log GI50” value (OVCAR-3) is reported as -5.48 M. The “cytotoxicity log GI50” value (LOX1MVI) was -5.41 M, the “cytotoxicity log GI50” value (MDA-MB-231/ATCC) was -4.63 M and the “cytotoxicity log GI50” value (MDA-MB-435) was -5.69 M. For the same compound, the “cytotoxicity log GI50” value (SK-MEL-2) was -5.31 M, the “cytotoxicity log GI50” value (M14) was -5.22 M and the “cytotoxicity log GI50” value (UACC-257) was -5.37 M. The “cytotoxicity log GI50” value (MDA-N) was -5.74 M, the “cytotoxicity log GI50” value (UACC-62) was -5.67 M and the “cytotoxicity log GI50” value (HOP-92) was -5.66 M. For the same compound, the “cytotoxicity log GI50” value (SR) was -5.16 M.
In the case of `Cc1nc2c(n1CCCl)C(=O)c1ccccc1C2=O` [Compound 21, 1-(2'-Chloroethyl)-2-methylnaphth[2,3-d]imidazole-4,9-dione], the “cytotoxicity log GI50” value (HL-60(TB)) is reported as -4.79 M, the “cytotoxicity log GI50” value (ACHN) is reported as -6.32 M and the “cytotoxicity log GI50” value (OVCAR-4) is reported as -4.83 M. The “cytotoxicity log GI50” value (NCI-H460) was -4.83 M, the “cytotoxicity log GI50” value (MDA-MB-231/ATCC) was -4.81 M and the “cytotoxicity log GI50” value (SK-OV-3) was -5.28 M. The “cytotoxicity log GI50” value (HCT-15) was -5.10 M, the “cytotoxicity log GI50” value (MCF7/ADR-RES) was -4.79 M and the “cytotoxicity log GI50” value (MALME-3M) was -5.24 M. The “cytotoxicity log GI50” value (MOLT-4) was -4.89 M, the “cytotoxicity log GI50” value (MDA-MB-435) was -4.82 M and the “cytotoxicity against tumor cells (in words)” value (human tumor cell lines; cancer cell line panel) was “comparable to those of compounds 6-14”. The “cytotoxicity log GI50” value (SNB-75) was -4.84 M, the “cytotoxicity log GI50” value (COLO-205) was -4.85 M and the “cytotoxicity log GI50” value (UO-31) was -6.22 M. The “cytotoxicity log GI50” value (IGROV1) was -4.94 M, the “cytotoxicity log GI50” value (M14) was -5.33 M and the “cytotoxicity log GI50” value (U 251) was -4.90 M. The “cytotoxicity log GI50” value (RXF-393) was -6.78 M, the “cytotoxicity log GI50” value (UACC-257) was -4.85 M and the “cytotoxicity log GI50” value (UACC-62) was -4.89 M. For the same compound, the “cytotoxicity log GI50” value (PC-3) was -5.07 M, the “cytotoxicity log GI50” value (K-562) was -4.80 M and the “cytotoxicity log GI50” value (HT 29) was -4.80 M.
In the case of `CCn1c(-c2ccc(OC)cc2)nc2c1C(=O)c1ccccc1C2=O` [Compound 27], the GI50 (human tumor cell lines) is reported as ~10 µM, the “cytotoxicity log GI50” value (HOP-62) is reported as -4.22 M and the “cytotoxicity log GI50” value (NCI-H23) is reported as -4.21 M.
In the case of `O=C(O)CCc1nc2c(n1Cc1ccccc1)C(=O)c1ccccc1C2=O` [Compound 61], the “cytotoxicity log GI50” value (HCT-116) is reported as -4.44 M, the “cytotoxicity log GI50” value (NCI-H460) is reported as -4.42 M and the “cytotoxicity log GI50” value (SK-MEL-5) is reported as -4.67 M. For the same compound, the “cytotoxicity log GI50” value (OVCAR-3) was -4.55 M, the “cytotoxicity log GI50” value (LOX1MVI) was -4.57 M and the “cytotoxicity log GI50” value (SW 620) was -4.50 M. For the same compound, the “cytotoxicity log GI50” value (MDA-MB-231/ATCC) was -4.47 M, the “cytotoxicity log GI50” value (MDA-MB-435) was -4.72 M and the “cytotoxicity log GI50” value (TK-10) was -4.47 M. For the same compound, the “cytotoxicity log GI50” value (COLO-205) was -4.47 M, the “cytotoxicity log GI50” value (UO-31) was -4.51 M and the “cytotoxicity log GI50” value (SK-MEL-2) was -4.59 M. The “cytotoxicity log GI50” value (M14) was -4.67 M, the “cytotoxicity log GI50” value (RXF-393) was -4.60 M and the “cytotoxicity log GI50” value (UACC-257) was -4.47 M. The “cytotoxicity log GI50” value (MDA-N) was -4.67 M, the “cytotoxicity log GI50” value (UACC-62) was -4.42 M and the “cytotoxicity log GI50” value (NCI-H23) was -4.52 M. For the same compound, the “cytotoxicity log GI50” value (HOP-92) was -5.26 M, the “cytotoxicity log GI50” value (SF-539) was -4.55 M and the “cytotoxicity log GI50” value (NCI-H522) was -4.62 M.
With `CCc1nc2c(n1CC)C(=O)c1ccccc1C2=O` [Compound 23] the “cytotoxicity log GI50” value (SN12C) was -4.56 M, the “cytotoxicity log GI50” value (BT-549) was -4.76 M and the “cytotoxicity log GI50” value (OVCAR-3) was -4.73 M. For the same compound, the “cytotoxicity log GI50” value (SW 620) was -4.57 M, the “cytotoxicity log GI50” value (MDA-MB-231/ATCC) was -4.77 M and the “cytotoxicity log GI50” value (MALME-3M) was -4.81 M. For the same compound, the “cytotoxicity log GI50” value (NCI-H266) was -4.54 M, the “cytotoxicity log GI50” value (MDA-MB-435) was -4.74 M and the GI50 (human tumor cell lines) was ~10 µM. The “cytotoxicity log GI50” value (TK-10) was -4.66 M, the “cytotoxicity log GI50” value (SNB-75) was -4.68 M and the “cytotoxicity log GI50” value (COLO-205) was -4.77 M. For the same compound, the “cytotoxicity log GI50” value (IGROV1) was -4.61 M, the “cytotoxicity log GI50” value (M14) was -4.63 M and the “cytotoxicity log GI50” value (RXF-393) was -4.70 M. The “cytotoxicity log GI50” value (UACC-257) was -4.60 M, the “cytotoxicity log GI50” value (UACC-62) was -4.54 M and the “cytotoxicity log GI50” value (PC-3) was -4.73 M. For the same compound, the “cytotoxicity log GI50” value (T-47D) was -4.74 M and the “cytotoxicity log GI50” value (HT 29) was -4.60 M.
In the case of `CCNC1=C(NC(=O)c2ccccc2)C(=O)c2ccccc2C1=O` [Compound 47], the “cytotoxicity log GI50” value (HCT-116) is reported as -4.59 M, the “cytotoxicity log GI50” value (OVCAR-3) is reported as -4.47 M and the “cytotoxicity log GI50” value (SW 620) is reported as -4.63 M. The “cytotoxicity log GI50” value (MDA-MB-231/ATCC) was -5.21 M, the “cytotoxicity log GI50” value (SK-OV-3) was -4.62 M and the “cytotoxicity log GI50” value (HCT-15) was -4.73 M. The “cytotoxicity log GI50” value (MCF7/ADR-RES) was -4.78 M, the “cytotoxicity log GI50” value (MALME-3M) was -4.77 M and the “cytotoxicity log GI50” value (MDA-MB-435) was -5.14 M. For the same compound, the “cytotoxicity log GI50” value (COLO-205) was -4.78 M, the “cytotoxicity log GI50” value (M14) was -4.58 M and the “cytotoxicity log GI50” value (RXF-393) was -4.62 M. For the same compound, the “cytotoxicity log GI50” value (UACC-257) was -4.63 M, the “cytotoxicity log GI50” value (MDA-N) was -5.31 M and the “cytotoxicity log GI50” value (UACC-62) was -4.70 M. For the same compound, the “cytotoxicity log GI50” value (PC-3) was -4.74 M, the “cytotoxicity log GI50” value (T-47D) was -4.85 M and the “cytotoxicity log GI50” value (NCI-H522) was -4.95 M.
With `CCNC1=C(NC(=O)c2ccc(F)cc2)C(=O)c2ccccc2C1=O` [Compound 48] the “cytotoxicity log GI50” value (OVCAR-8) was -4.49 M, the “cytotoxicity log GI50” value (HCT-116) was -4.52 M and the “cytotoxicity log GI50” value (SK-MEL-5) was -4.46 M. The “cytotoxicity log GI50” value (OVCAR-3) was -4.44 M, the “cytotoxicity log GI50” value (SW 620) was -4.49 M and the “cytotoxicity log GI50” value (SK-OV-3) was -4.73 M. For the same compound, the “cytotoxicity log GI50” value (CCRF-CEM) was -4.45 M, the “cytotoxicity log GI50” value (HCT-15) was -4.51 M and the “cytotoxicity log GI50” value (MCF7/ADR-RES) was -4.56 M. The “cytotoxicity log GI50” value (MALME-3M) was -4.72 M, the “cytotoxicity log GI50” value (MOLT-4) was -4.52 M and the “cytotoxicity log GI50” value (MDA-MB-435) was -4.74 M. For the same compound, the “cytotoxicity log GI50” value (MCF-7) was -4.52 M, the “cytotoxicity log GI50” value (COLO-205) was -4.58 M and the “cytotoxicity log GI50” value (IGROV1) was -4.50 M. For the same compound, the “cytotoxicity log GI50” value (M14) was -4.61 M, the “cytotoxicity log GI50” value (RXF-393) was -4.53 M and the “cytotoxicity log GI50” value (UACC-257) was -4.80 M. The “cytotoxicity log GI50” value (MDA-N) was -4.47 M, the “cytotoxicity log GI50” value (UACC-62) was -4.82 M and the “cytotoxicity log GI50” value (NCI-H23) was -4.46 M. For the same compound, the “cytotoxicity log GI50” value (PC-3) was -4.76 M, the “cytotoxicity log GI50” value (HCC-2998) was -4.46 M and the “cytotoxicity log GI50” value (NCI-H522) was -4.68 M. The “cytotoxicity log GI50” value (HT 29) was -4.65 M.

Reference: patent publication US5789431A, “Naphthoquinone antitumor compound and method” (The University of North Carolina at Chapel Hill, priority 1996, dated 1998)
